{
  "source": "ChEMBL document CHEMBL1649492",
  "about": "“Population modeling and Monte Carlo simulation study of the pharmacokinetics and antituberculosis pharmacodynamics of rifampin in lungs” (Antimicrob Agents Chemother, 2009)",
  "key": {"[1]": {"experiment": "Volume of distribution in epithelial lining fluid of patient with tuberculosis at […], po administered as single dose", "type": "ADME, organism-based", "set-up": "route oral", "settings": "human, in vivo"}, "[2]": {"experiment": "Ratio of AUC (0 to 24 hrs) to MIC in plasma of patient with Mycobacterium tuberculosis infection at […], po administered as single dose", "type": "functional"}, "[3]": {"test_system": "Homo sapiens", "experiment": "Volume of distribution in patient with tuberculosis at […], po administered as single dose", "type": "ADME, organism-based", "set-up": "route oral", "settings": "in vivo"}, "[4]": {"experiment": "Ratio of AUC (0 to 24 hrs) to MIC in epithelial lining fluid of patient with Mycobacterium tuberculosis infection at […], po administered as single dose", "type": "functional"}, "[5]": {"experiment": "Volume of distribution in alveolar cells of patient with tuberculosis at […], po administered as single dose", "type": "ADME, organism-based, Pneumocyte", "set-up": "route oral", "settings": "human, in vivo"}},
  "note": "Where “and” joins values, the source holds several entries; their conditions need not be identical. Identical values can stand only once.",
  "data": [
    {"smiles": "CO[C@H]1/C=C/O[C@@]2(C)Oc3c(C)c(O)c4c(O)c(c(/C=N/N5CCN(C)CC5)c(O)c4c3C2=O)NC(=O)/C(C)=C\\C=C\\[C@H](C)[C@H](O)[C@@H](C)[C@@H](O)[C@@H](C)[C@H](OC(C)=O)[C@@H]1C", "note": "[RIFAMPIN]", "values": [
      {"measurement": "Vd", "setting": "[1]", "result": "102.6 L and 102.8 L and 52.1 L"},
      {"measurement": "RatioAUC/MIC", "setting": "[2]", "result": ">=271"},
      {"measurement": "Vd", "setting": "[3]", "result": "11.56 L and 10.16 L and 8.05 L"},
      {"measurement": "RatioAUC/MIC", "setting": "[4]", "result": ">=665"},
      {"measurement": "Vd", "setting": "[5]", "result": "49.94 L and 43.66 L and 33.65 L"}
    ]}
  ]
}
